Patent publication US6900354B2, “3-phenyl-propionamido, 3-phenyl-acrylamido and 3-phenyl-propynamido derivatives” (Hoffman-La Roche Inc., priority 2002, dated 2005)

Legend:
human MAO-A = biological target: T1, human MAO-A (Homo sapiens, UniProt P21397); assay: MAO-A enzymatic activity, spectrophotometric assay (Amplex Red, tyramine) on membranes of transfected EBNA cells; format: biochemical; conditions: heading: MAO-A IC50, substrate tyramine, 30 min preincubation at 37° C., pH 7.4
T1 construct: expressed in transfected cells; host or cells: EBNA cells (transient transfection); membranes by centrifugation at 45,000 x g
T1 sequence (P21397 1-527): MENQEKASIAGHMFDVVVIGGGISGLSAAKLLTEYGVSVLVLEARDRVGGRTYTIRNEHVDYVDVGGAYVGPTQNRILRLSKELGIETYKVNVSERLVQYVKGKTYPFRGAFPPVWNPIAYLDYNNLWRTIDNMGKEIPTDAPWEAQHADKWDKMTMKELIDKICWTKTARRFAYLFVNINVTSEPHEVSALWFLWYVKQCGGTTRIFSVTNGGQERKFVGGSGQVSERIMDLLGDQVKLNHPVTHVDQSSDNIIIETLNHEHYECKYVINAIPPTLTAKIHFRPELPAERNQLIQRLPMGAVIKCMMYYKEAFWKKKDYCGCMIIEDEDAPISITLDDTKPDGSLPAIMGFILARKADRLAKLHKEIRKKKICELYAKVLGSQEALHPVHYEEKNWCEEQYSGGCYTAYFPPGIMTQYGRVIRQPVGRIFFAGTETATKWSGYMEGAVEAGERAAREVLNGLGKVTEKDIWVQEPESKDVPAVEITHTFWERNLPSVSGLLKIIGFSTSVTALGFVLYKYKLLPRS
Experimental: (§1) The pharmacological activity of the compounds was tested using the following method. The cDNAs encoding human MAO-A and MAO-B were transiently transfected into EBNA cells using the procedure described by Schlaeger and Christensen [Transient Gene Expression in Mammalian Cells Grown in Serum-free Suspension Culture; Cytotechnology, 15:1-13 (1998)]. After transfection, cells were homogenised by means of a Polytron homogenizer in 20 mM Tris HCl buffer, pH 8.0, containing 0.5 mM EGTA and 0.5 mM phenylmethanesulfonyl fluoride. Cell membranes were obtained by centrifugation at 45,000×g and, after two rinsing step with 20 mM Tris HCl buffer, pH 8.0, containing 0.5 mM EGTA, membranes were eventually re-suspended in the above buffer and aliquots stored at −80° C. until use.
(§2) MAO-A and MAO-B enzymatic activity was assayed in 96-well-plates using a spectrophotometric assay adapted from the method described by Zhou and Panchuk-Voloshina [A One-Step Fluorometric Method for the Continuous Measurement of Monoamine Oxidase Activity, Analytical Biochemistry 253:169-174 (1997)]. Briefly, membrane aliquots were incubated in 0.1 M potassium phosphate buffer, pH 7.4, for 30 min at 37° C. with or without various concentrations of the compounds. After this period, the enzymatic reaction was started by the addition of the MAO substrate tyramine together with 1 U/ml horse-radish peroxidase (Roche Biochemicals) and 80 μM N-acetyl-3,7,-dihydroxyphenoxazine (Amplex Red, Molecular Probes). The samples were further incubated for 30 min at 37° C. in a final volume of 200 μl and absorbance was then determined at a wavelength of 570 nm using a SpectraMax plate reader (Molecular Devices). Background (non-specific) absorbance was determined in the presence of 10 μM clorgyline for MAO-A or 10 μM L-deprenyl for MAO-B.
(§3) IC50 values were determined from inhibition curves obtained using nine inhibitor concentrations in duplicate, by fitting data to a four parameter logistic equation using a computer program.

human MAO-B = biological target: T2, human MAO-B (Homo sapiens, UniProt P27338); assay: MAO-B enzymatic activity, spectrophotometric assay (Amplex Red, tyramine) on membranes of transfected EBNA cells; format: biochemical; conditions: substrate tyramine, 30 min preincubation at 37° C., pH 7.4
T2 construct: expressed in transfected cells; host or cells: EBNA cells (transient transfection); membranes by centrifugation at 45,000 x g
T2 sequence (P27338 1-520): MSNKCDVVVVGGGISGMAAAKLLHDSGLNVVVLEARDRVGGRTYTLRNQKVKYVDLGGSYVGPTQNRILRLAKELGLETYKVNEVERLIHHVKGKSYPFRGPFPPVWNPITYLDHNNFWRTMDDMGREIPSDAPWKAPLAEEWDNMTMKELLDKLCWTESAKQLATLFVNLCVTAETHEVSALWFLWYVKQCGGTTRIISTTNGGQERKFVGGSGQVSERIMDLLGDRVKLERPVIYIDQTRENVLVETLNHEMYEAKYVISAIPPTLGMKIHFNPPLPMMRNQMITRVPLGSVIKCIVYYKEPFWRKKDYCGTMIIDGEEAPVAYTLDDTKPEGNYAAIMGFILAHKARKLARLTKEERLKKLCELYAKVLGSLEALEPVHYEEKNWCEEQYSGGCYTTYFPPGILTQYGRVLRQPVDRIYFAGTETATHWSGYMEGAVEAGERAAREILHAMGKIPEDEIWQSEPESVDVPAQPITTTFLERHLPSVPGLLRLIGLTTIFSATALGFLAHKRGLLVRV
Experimental: as §1, §2, §3

IC50 (human MAO-A) | IC50 (human MAO-B) | SMILES
> 10000 nM | 29 nM | CNC(=O)C(C)Cc1ccc(OCc2cccc(F)c2)cc1 (stereo not drawn) [Example 4, 3-[4-(3-Fluoro-benzyloxy)-phenyl]-2,N-dimethyl-propionamide]
> 10000 nM | 83 nM | CC(=Cc1ccc(OCc2cccc(F)c2)cc1)C(N)=O [Example 1, 3-[4-(3-Fluoro-benzyloxy)-phenyl]-2-methyl-acrylamide]
5620 nM | 98 nM | NC(=O)C#Cc1ccc(OCc2cccc(F)c2)cc1 [Example 5, 3-[4-(3-Fluoro-benzyloxy)-phenyl]-propynoic acid amide]
